Laboratory results taken from the supplement of paper PMC5412046.
Counter-ions that a name gives are not always drawn.

Assays:
SB.mhdgc-1 = assay: AC50 for growth inhibition (viability) (log10 M); higher = less potent; conditions: SB.mhdgc-1 (hereditary c.1380delA CDH1 gastric cancer)
Procedure, shortened: (§1)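 Gastric cancer cells derived from patients with hereditary or sporadic disease were seeded at 500 cells in 5 μL medium per 1536 well. A pintool delivered 23 nL of compound in DMSO, as 11 threefold dilutions from a final 46 μM. After 48 h, CellTiter-Glo was added for 30 min at room temperature and luminescence was read on a ViewLux. The log half-maximal activity concentration was taken from a four-parameter fit of viability normalised to DMSO, using only high-quality curve classes.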

SB.msgc-1 = assay: as above; conditions: SB.msgc-1 (sporadic gastric cancer)
Procedure, shortened: as §1

Compound	AC50 for growth inhibition (log10 M) (SB.mhdgc-1)	AC50 for growth inhibition (log10 M) (SB.msgc-1)
CC(C)n1nc(-c2ccc3oc(N)nc3c2)c2c(N)ncnc21 [INK-128]	-4.78	-5.48
Nc1ccc(C(=O)c2cc3c(ccc4ccccc43)[nH]2)cc1 [IPFK2]	-4.73	-5.33
CCOC(=O)\C1=C(/C)N\C2=C(C1C3=CC=C(C=C3)C4=CC=CC=C4)\C(=O)CC(C)(C)C2 (stereo unspecified) [ITD-1]	-4.83	-4.73
COc1cc(C)c(Sc2cnc(NC(=O)c3ccc(CNC(C)C(C)C)cc3)s2)cc1C(=O)N1CCN(C(C)=O)CC1 (stereo unspecified) [ITK inhibitor]	-4.78	-4.73
COc1ccc([S+](=O)([O-])N(C(C)=O)c2ccccc2/C=C/c2cc[n+]([O-])cc2)cc1 [IVX-214]	-6.53	-6.38
COC1=CC=C(C=C1)/C2=C(O)/C(=O)C3=C(O)C=C(O)C(=C3O2)CC=C(C)C [Icaritin]	-4.88	-4.63
CC(=O)[C@]1(O)Cc2c(O)c3c(c(O)c2[C@@H](O[C@H]2C[C@H](N)[C@H](O)[C@H](C)O2)C1)C(=O)c1ccccc1C3=O [Idarubicin hydrochloride]	-7.38	-6.63
CC(C)Cn1cnc2c(N)nc3ccccc3c21 [Imiquimod]	-5.93	-4.73
O=C(Nc1ccncc1)C(=O)c1cn(Cc2ccc(Cl)cc2)c2ccccc12 [Indibulin]	-6.28	-5.68
CC(C)(C)NC(=O)[C@@H]1CN(Cc2cccnc2)CCN1C[C@@H](O)C[C@@H](Cc1ccccc1)C(=O)N[C@H]1c2ccccc2C[C@H]1O.O=S(=O)(O)O [Indinavir]	-6.08	-4.78
COc1ccc2c(c1)c(CC(=O)O)c(C)n2C(=O)c1ccc(Cl)cc1 [Indomethacin]	-6.03	-5.93
CCC1=C2C=C(OC(=O)N3CCC(CC3)N4CCCCC4)C=CC2=NC\5=C1CN6C(=O)\C7=C(/C=C56)[C@@](O)(CC)C(=O)OC7 [Irinotecan]	-6.78	-6.73
CC(C)NCC(O)c1ccc(O)c(O)c1 (stereo unspecified) [Isoprenaline hydrochloride]	-5.43	-4.83
CC1=C(/C=C/C(C)=C/C=C/C(C)=C\C(=O)O)C(C)(C)CCC1 [Isotretinoin]	-4.63	-5.33
COC(=O)C\1=C(C)\N\C(=C(/C1C2=CC=CC3=NON=C23)C(=O)OC(C)C)C (stereo unspecified) [Isradipine]	-5.38	-4.78
CC(C)C[C@H](NC(=O)CNC(=O)c1cc(Cl)ccc1Cl)B1OC(=O)CC(CC(=O)O)(C(=O)O)O1 (stereo partly specified) [Ixazomib citrate]	-7.03	-7.23
CC(C)C[C@H](NC(=O)CNC(=O)c1cc(Cl)ccc1Cl)B(O)O [Ixazomib]	-6.63	-7.03
CC1=C(C)C2=C(S1)[N]3C(=NN=C3[C@H](CC(=O)OC(C)(C)C)/N=C2/C4=CC=C(Cl)C=C4)C [JQ1]	-5.28	-5.38
CCOC(=O)N1CCN(/[N+]([O-])=N/Oc2ccc([N+](=O)[O-])cc2C#N)CC1 [JS-59-4]	-4.78	-5.13
CCc1ccc(OCc2ccccc2C(=O)Nc2ccc3nc(C)cc(N)c3c2)cc1 [JTC-801]	-5.43	-4.98
CC(C)CNc1ccnc(NCc2csc(-c3ccccc3)n2)n1 [KHS101]	-4.78	-4.78
NC(CO)(CO)CCc1ccc(Sc2cccc(OCc3ccccc3)c2)cc1Cl [KRP 203]	-5.03	-4.58
O=C(Cc1ccc(-c2ccc(OCCN3CCOCC3)cc2)cn1)NCc1ccccc1 [KX-01]	-8.18	-7.48
OC1=CC=C(C=C1)\C2=C(O)\C(=O)C3=C(O2)C=C(O)C=C3O [Kaempferol]	-4.93	-4.88
O=C(c1ccccc1)c1ccc2n1CCC2C(=O)O (stereo unspecified) [Ketorolac]	-5.98	-5.78
CN1CC/C(CC1)=C3\c4ccccc4CC(=O)c2sccc23 [Ketotifen]	-5.53	-4.78
Cc1cc(-c2ncc(CC(=O)Nc3ccc(-c4cnccn4)cn3)cc2C)ccn1 [LGK974]	-4.88	-4.78

Compound	AC50 for growth inhibition (log10 M) (SB.mhdgc-1)	AC50 for growth inhibition (log10 M) (SB.msgc-1)
N[S+](=O)([O-])c1cccc2c1C(=O)c1cccc(O)c1C2=O [LLL-12]	-6.98	-6.63
COc1cc(C(=O)N2CCC(N3CCN(C)CC3)CC2)ccc1Nc1ncc2c(n1)N(C)c1ccccc1C(=O)N2C [LRRK2-IN-1]	-4.78	-4.83
Nc1nnc(-c2cccc(Cl)c2Cl)c(N)n1 [Lamotrigine]	-4.53	-4.63
COc1cc2nccc(Oc3ccc(NC(=O)NC4CC4)c(Cl)c3)c2cc1C(N)=O [Lenvatinib]	-6.38	-5.48
C[C@@]12O[C@@H](C[C@]1(O)CO)n1c3ccccc3c3c4c(c5c6ccccc6n2c5c31)CNC4=O [Lestaurtinib]	-6.33	-5.48
C[C@]1(O)CC(C1)C2=NC(=C3[N]2C=CN=C3N)C4=CC5=C(C=C4)C=CC(=N5)C6=CC=CC=C6 (stereo unspecified) [Linsitinib]	-5.03	-4.78
C[S+](=O)([O-])Oc1ccc2c(NC(N)=O)c(C(=O)c3ccc(Cl)cc3Cl)oc2c1 [Lirimilast]	-6.08	-5.53
NC(=O)N1CCC(CC(=O)N2CCC([C@H]3c4ncc(Br)cc4CCc4cc(Cl)cc(Br)c43)CC2)CC1 [Lonafarnib]	-4.78	-4.78
CN1\C(=C(O)/C2=C(C=C(Cl)S2)[S+]1([O-])=O)C(=O)NC3=NC=CC=C3 [Lornoxicam]	-5.88	-5.43
Cc1ccc(NC(=O)C2(c3ccc4c(c3)OC(F)(F)O4)CC2)nc1-c1cccc(C(=O)O)c1 [Lumacaftor]	-6.73	-7.63
CN(C)c1ccc(C(=O)NCCCCCCC(=O)NO)cc1 [M344]	-5.83	-6.08
CCC[C@@H](C=O)NC(=O)[C@H](CC(C)C)NC(=O)[C@H](CC(C)C)NC(=O)OCc1ccccc1 [MG-115]	-5.98	-5.88
CC(C)C[C@@H](C=O)NC(=O)[C@H](CC(C)C)NC(=O)[C@H](CC(C)C)NC(=O)OCc1ccccc1 [MG-132]	-6.33	-6.08
COCCOc1nc(-c2ccc(Cl)c(Cl)c2)n(-c2ccc(NC(=O)CCl)cc2)n1 [MI-2]	-4.73	-5.08
NC1(c2ccc(-c3nc4ccn5c(=O)[nH]nc5c4cc3-c3ccccc3)cc2)CCC1 [MK-2206]	-6.13	-4.68
COC1=CC=C(C=C1)C2CC(=N/N2C3=CC=C(C=C3)[S+](N)([O-])=O)\C4=CC=CC=C4 (stereo unspecified) [ML 141]	-4.68	-4.73
COc1c(Cl)cc2c([nH]c3cnccc32)c1NC(=O)c1cccnc1C [MLN-120B]	-5.83	-5.23
CNCCCC12CCC(c3ccccc31)c1ccccc12 [Maprotiline hydrochloride]	-4.78	-4.63
Cc1nnc(C(C)C)n1[C@@H]1C[C@H]2CC[C@@H](C1)N2CC[C@H](NC(=O)C1CCC(F)(F)CC1)c1ccccc1 [Maraviroc]	-5.18	-4.78
C[C@@]12OC(=O)[C@@]1(NC(=O)[C@@H]2CCCl)[C@@H](O)[C@H]\3CCC\C=C3 [Marizomib]	-7.68	-7.48
C[C@H]1C[C@@H]2[C@H](CC[C@@]3(C)[C@H]2CC[C@]3(OC(C)=O)C(C)=O)[C@@]\4(C)CCC(=O)\C=C14 [Medroxyprogesterone acetate]	-5.23	-4.83
COc1ccc2[nH]cc(CCNC(C)=O)c2c1 [Melatonin]	-5.33	-5.83
N[C@@H](Cc1ccc(N(CCCl)CCCl)cc1)C(=O)O [Melphalan]	-6.08	-5.83
CC12CC3CC(C)(C1)CC(N)(C3)C2 [Memantine hydrochloride]	-4.73	-4.83
CCN(CC)CCNC(=O)c1ccc2nc(-c3ccccc3)c(-c3ccc(CN4CCC(n5c(=O)[nH]c6ccccc65)CC4)cc3)nc2c1 [Merck-22-6]	-5.63	-4.88
CN(Cc1cnc2nc(N)nc(N)c2n1)c1ccc(C(=O)N[C@@H](CCC(=O)O)C(=O)O)cc1 [Methotrexate]	-6.68	-7.48
